Laboratory results from patent US8461328B2, “Tricyclic heterocyclic compounds, compositions and methods of use thereof” (Genentech, Inc., priority 2010, dated 2013).

Columns and labels:
Format in all cases: biochemical
JAK1 = target: T1, JAK1 (Homo sapiens, UniProt P23458); assay: JAK1 inhibition (Table 4); conditions: read-out: JAK1 Ki
T1 construct: made in house; host or cells: SF9 insect cells (baculovirus)

JAK2 = target: T2, JAK2 (Homo sapiens, UniProt O60674); assay: JAK2 inhibition (Table 4); conditions: read-out: JAK2 Ki
T2 construct: made in house; host or cells: SF9 insect cells (baculovirus)
T2 sequence (O60674 812-1132): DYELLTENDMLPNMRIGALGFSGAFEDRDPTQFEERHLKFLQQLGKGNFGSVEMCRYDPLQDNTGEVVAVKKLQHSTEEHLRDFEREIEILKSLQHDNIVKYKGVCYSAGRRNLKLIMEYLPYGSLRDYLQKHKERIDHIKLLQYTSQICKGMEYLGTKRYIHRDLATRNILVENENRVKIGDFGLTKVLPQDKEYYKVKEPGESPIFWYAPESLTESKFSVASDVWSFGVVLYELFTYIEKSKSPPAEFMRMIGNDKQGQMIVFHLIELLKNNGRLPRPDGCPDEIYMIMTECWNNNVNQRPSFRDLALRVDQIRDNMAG

JAK3 = target: T3, JAK3 (Homo sapiens, UniProt P52333); assay: JAK3 inhibition (Table 4); conditions: read-out: JAK3 Ki
T3 construct: made in house; host or cells: SF9 insect cells (baculovirus)
T3 sequence (P52333 783-1124): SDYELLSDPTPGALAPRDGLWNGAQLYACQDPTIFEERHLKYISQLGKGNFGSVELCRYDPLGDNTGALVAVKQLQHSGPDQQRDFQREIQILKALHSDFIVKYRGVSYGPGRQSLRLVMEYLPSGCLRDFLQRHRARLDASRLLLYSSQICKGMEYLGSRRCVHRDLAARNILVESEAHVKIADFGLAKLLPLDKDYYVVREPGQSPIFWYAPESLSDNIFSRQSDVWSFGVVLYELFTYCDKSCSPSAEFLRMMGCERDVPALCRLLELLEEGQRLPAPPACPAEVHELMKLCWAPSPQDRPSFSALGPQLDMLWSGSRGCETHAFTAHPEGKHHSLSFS

TYK2 = target: T4, TYK2 (Homo sapiens, UniProt P29597); assay: TYK2 inhibition (Table 4)
T4 construct: made in house; host or cells: SF9 insect cells (baculovirus)
T4 sequence (P29597 873-1187): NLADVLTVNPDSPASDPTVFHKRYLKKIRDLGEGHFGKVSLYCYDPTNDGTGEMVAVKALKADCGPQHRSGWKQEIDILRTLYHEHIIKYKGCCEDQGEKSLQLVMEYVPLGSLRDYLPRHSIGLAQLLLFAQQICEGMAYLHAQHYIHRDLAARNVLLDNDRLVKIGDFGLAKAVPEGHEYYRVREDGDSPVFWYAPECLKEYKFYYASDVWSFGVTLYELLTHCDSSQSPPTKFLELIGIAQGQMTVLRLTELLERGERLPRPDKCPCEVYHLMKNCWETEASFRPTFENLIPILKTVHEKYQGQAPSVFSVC

T1 sequence (P23458 852-1154): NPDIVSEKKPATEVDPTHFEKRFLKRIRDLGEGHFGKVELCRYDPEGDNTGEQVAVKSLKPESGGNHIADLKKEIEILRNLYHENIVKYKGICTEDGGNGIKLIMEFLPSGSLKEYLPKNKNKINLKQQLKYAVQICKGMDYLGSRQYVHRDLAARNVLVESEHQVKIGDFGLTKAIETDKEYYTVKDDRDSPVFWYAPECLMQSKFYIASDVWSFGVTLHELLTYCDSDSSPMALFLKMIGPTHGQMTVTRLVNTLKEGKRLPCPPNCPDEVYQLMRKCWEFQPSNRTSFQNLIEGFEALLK

SMILES	Ki (JAK1) [nM]	Ki (JAK2) [nM]	Ki (JAK3) [nM]	Ki (TYK2) [nM]
CC(C)(C)OC(=O)N1CCC[C@@H]1C(=O)N1CCC(n2cnc3cnc4[nH]ccc4c32)CC1 [Example 242, (R)-2-[4-(6H-1,3,5,6-Tetraaza-as-indacen-1-yl)-piperidine-1-carbonyl]-pyrrolidine-1-carboxylic acid tert-butyl ester]	217	311	4060	2560
FC(F)(F)CNC1CCC(n2nnc3cnc4[nH]ccc4c32)C1 (racemic) [Example 718, [3-(6H-1,2,3,5,6-Pentaaza-as-indacen-1-yl)-cyclopentyl]-(2,2,2-trifluoro-ethyl)-amine]	10.3	20.8	143	83.1
N#Cc1cccc(S(=O)(=O)N2CCC(n3cnc4cnc5[nH]ccc5c43)CC2)c1 [Example 73, 3-[4-(6H-1,3,5,6-Tetraaza-as-indacen-1-yl)-piperidine-1-sulfonyl]benzonitrile]	0.91	0.95	57.7	6.82
CC(C)NC(=O)Cc1nc2cnc3[nH]ccc3c2n1C1CCN(CCC#N)CC1 [Example 266, 2-{1-[1-(2-Cyano-ethyl)-piperidin-4-yl]-1,6-dihydro-1,3,5,6-tetraaza-as-indacen-2-yl}-N-isopropyl-acetamide]	5.26	17.2	7.87	120
N#CCCN1CCC(n2c(C3CC3)nc3cnc4[nH]ccc4c32)CC1 [Example 337, 3-[4-(2-Cyclopropyl-6H-1,3,5,6-tetraaza-as-indacen-1-yl)-piperidin-1-yl]-propionitrile]	2.9	5.31	10.7	33.7
OCCN1CCC(n2cnc3cnc4[nH]ccc4c32)CC1 [Example 338, 2-[4-(6H-1,3,5,6-Tetraaza-as-indacen-1-yl)-piperidin-1-yl]-ethanol]	21.1	50.1	288	158
CC1(n2cnc3cnc4[nH]ccc4c32)CCN(Cc2cncs2)CC1 [Example 755, 1-(4-Methyl-1-thiazol-5-ylmethyl-piperidin-4-yl)-1,6-dihydro-1,3,5,6-tetraaza-as-indacene]	7.15	33.7	93.1	211
OCc1nc2cnc3[nH]ccc3c2n1C1CCN(CCC(F)(F)F)CC1 [Example 760, {1-[1-(3,3,3-Trifluoro-propyl)-piperidin-4-yl]-1,6-dihydro-1,3,5,6-tetraaza-as-indacen-2-yl}-methanol]	3.46	23	21.7	25.4
CS(=O)(=O)N1CCC[C@@H](n2cnc3cnc4[nH]ccc4c32)C1 [Example 9, 1-((R)-1-Methanesulfonyl-piperidin-3-yl)-1,6-dihydro-1,2,3,5,6-tetraaza-as-indacene]	7.48	6.5	16.6	35.4
c1cc2c(ncc3nnn(C4CCNCC4)c32)[nH]1 [Example 231]	86.6	395	1140	1030
N#CCCN1CCC(n2c(CNC(=O)c3ccccn3)nc3cnc4[nH]ccc4c32)CC1 [Example 496, Pyridine-2-carboxylic acid {1-[1-(2-cyano-ethyl)-piperidin-4-yl]-1,6-dihydro-1,3,5,6-tetraaza-as-indacen-2-ylmethyl}-amide]	2.75	8.05	13.1	55.7
CC(O)c1nc2cnc3[nH]ccc3c2n1CC1CCCO1 (centres unmarked) [Example 699, 1-[1-(Tetrahydro-furan-2-ylmethyl)-1,6-dihydro-1,2,3,5,6-tetraaza-as-indacen-2-yl]-ethanol]	235	131	280	1070
CC1(COC(=O)N[C@H]2CC[C@H](n3cnc4cnc5[nH]ccc5c43)CC2)CC1 [Example 348, [4-(6H-1,3,5,6-Tetraaza-as-indacen-1-yl)-cyclohexyl]-carbamic acid 1-methyl-cyclopropylmethyl ester]	5.6	15	78.5	148
O=C1CN(Cc2nc3cnc4[nH]ccc4c3n2C2CCOCC2)CCN1 [Example 473, 4-[1-(Tetrahydro-pyran-4-yl)-1,6-dihydro-1,3,5,6-tetraaza-as-indacen-2-ylmethyl]-piperazin-2-one]	447	1700	2010	1700
COCCN1CCC(n2c(C(C)O)nc3cnc4[nH]ccc4c32)CC1 (racemic) [Example 539, 1-{1-[1-(2-Methoxy-ethyl)-piperidin-4-yl]-1,6-dihydro-1,3,5,6-tetraaza-as-indacen-2-yl}-ethanol]	12.7	194	97.4	352
CN(CC(F)F)C(=O)NC1CCC(n2cnc3cnc4[nH]ccc4c32)CC1 (centres unmarked) [Example 747, 1-(2,2-difluoro-ethyl)-1-methyl-3-[4-(6H-1,3,5,6-tetraaza-as-indacen-1-yl)-cyclohexyl]-urea]	4.22	11.7	52.5	72.7
CC(C)CN[C@H]1CC[C@H](n2cnc3cnc4[nH]ccc4c32)CC1 [Example 569, trans Isobutyl-[4-(6H-1,3,5,6-tetraaza-as-indacen-1-yl)-cyclohexyl]-amine]	12.7	95.8	448	254
Cc1nc(CN2CCC(n3c([C@@H](C)O)nc4cnc5[nH]ccc5c43)CC2)c(C)o1 [Example 903, (R)-1-{1-[1-(2,5-Dimethyl-oxazol-4-ylmethyl)-piperidin-4-yl]-1,6-dihydro-1,3,5,6-tetraaza-as-indacen-2-yl}-ethanol]	33.9	323	88.9	542
C[C@@H](O)c1nc2cnc3[nH]ccc3c2n1C1CCN(Cc2ccnn2C)CC1 [Example 819, (R)-1-{1-[1-(2-Methyl-2H-pyrazol-3-ylmethyl)-piperidin-4-yl]-1,6-dihydro-1,3,5,6-tetraaza-as-indacen-2-yl}-ethanol]	10.9	61.8	44.9	161
O=C(c1ccccc1)N1CCC[C@@H](n2cnc3cnc4[nH]ccc4c32)C1 [Example 6, Phenyl-[(R)-3-(6H-1,2,3,5,6-tetraaza-as-indacen-1-yl)-piperidin-1-yl]-methanone]	11.9	21.4	373	134
O=C(Cc1ccccc1)N1CCC[C@@H](n2cnc3cnc4[nH]ccc4c32)C1 [Example 222, 2-Phenyl-1-[(R)-3-(6H-1,3,5,6-tetraaza-as-indacen-1-yl)-piperidin-1-yl]-ethanone]	13.8	29.1	48.1	555
CC(=O)N1CCC(c2nc3cnc4[nH]ccc4c3n2C2CCN(CCC#N)CC2)C1 (racemic) [Example 390, 3-{4-[2-(1-Acetyl-pyrrolidin-3-yl)-6H-1,3,5,6-tetraaza-as-indacen-1-yl]-piperidin-1-yl}-propionitrile]	21.5	75.6	47.9	446
C[C@@H](O)c1nc2cnc3[nH]ccc3c2n1[C@H]1CCCO1 [Example 660, (R)-1-[(R)-1-(Tetrahydro-furan-2-yl)-1,6-dihydro-1,2,3,5,6-tetraaza-as-indacen-2-yl]-ethanol]	327	1220	1050	645
N#Cc1nc2cnc3[nH]ccc3c2n1C1CCNCC1 [Example 170, 1-Piperidin-4-yl-1,6-dihydro-1,2,3,5,6-tetraaza-as-indacene-2-carbonitrile]	92.9	334	1050	956
N#CCC(=O)N1CC[C@@H](n2cnc3cnc4[nH]ccc4c32)C1 [Example 37, 3-Oxo-3-[(R)-3-(6H-1,3,5,6-tetraaza-as-indacen-1-yl)-pyrrolidin-1-yl]propionitrile]	11.3	44.2	144	198
CS(=O)(=O)N1CCC(n2nnc3cnc4[nH]ccc4c32)CC1 [Example 233, 1-(1-Methanesulfonyl-piperidin-4-yl)-1,6-dihydro-1,2,3,5,6-pentaaza-as-indacene]	4.96	7.84	250	77.1
C[C@@H](O)c1nc2cnc3[nH]ccc3c2n1[C@@H]1CCCN(C(=O)C2CCC2)C1 [Example 792, Cyclobutyl-{(R)-3-[2-((R)-1-hydroxy-ethyl)-6H-1,3,5,6-tetraaza-as-indacen-1-yl]-piperidin-1-yl}-methanone]	76.4	260	1060	448
c1cc2c(ncc3nc(C4CC4)n(C4CCNCC4)c32)[nH]1 [Example 298, 2-Cyclopropyl-1-piperidin-4-yl-1,6-dihydro-1,3,5,6-tetraaza-as-indacene]	27.8	367	231	1290
COCC(=O)NC1CCCC(n2cnc3cnc4[nH]ccc4c32)C1 (single isomer, unassigned) [Example 482, 2-Methoxy-N-[3-(6H-1,3,5,6-tetraaza-as-indacen-1-yl)-cyclohexyl]-acetamide]	55.8	97.6	150	845
